Test [1] deals with U87/EGFRvIII cells-derived subcutaneous model. Kind of test: U87/EGFRvIII subcutaneous xenograft model. Type of test: in vivo, mice. To be noted: 120 mg/kg/day. How it is done:
(§1) (A-C) The effects of the DGAT1 inhibitor […] (120 mg/kg/day, oral gavage, details in Methods) in U87/EGFRvIII cells (1×10^6 cells/mouse)- or GBM30-derived subcutaneous models (4×10^6 cells/mouse), as shown by tumor growth rate in A and final isolated tumor images and weights in B. Tumor tissues were analyzed for LD presence by IF (TIP47 staining) and CPT1A and cleaved Caspase 3 levels by IHC in C. LD numbers and protein levels in tumor tissues were quantified by ImageJ and averaged from 5 separate areas in each tumor. The results for protein levels were normalized to control tumors (mean±SEM). Statistical significance was determined by one-way ANOVA. * P<0.01 for comparison with control group. Scale bars, m for IF, 40 m for IHC.
(§2) It was next examined whether pharmacological inhibition of DGAT1 is effective in inhibiting GBM growth using U87/EGFRvIII and GBM30 xenograft models. Tumor cells were implanted in mice flanks and started treatment with DGAT1 inhibitor A-922500 (120 mg/kg/day) when tumor reached approximately 80 mm3.
(§3) Intracranial xenograft models were generated using female athymic nude (NCr-nu/nu) mice (6-8 weeks of age obtained from OSU Target Validation Shared Resource). U87EGFRvIII (1×10^6) cells infected with shDGAT1-, shDGAT2- or scramble shRNA-expressing lentivirus for 48 hr (suspended in 100 μl PBS) were implanted into mice flank to generate subcutaneous model. For intracranial xenograft model, U87EGFRvIII-luc (1×10^5) or GBM30-luc (1×10^5) cells infected with shDGAT1-, shDGAT2- or scramble shRNA-expressing lentivirus for 48 hours (suspended in 5 μl PBS) were implanted into mouse brains. Mice were observed until they became moribund, at which point they were sacrificed. For drug treatment, U87EGFRvIII (1×10^6 cells suspended in 100 μl PBS) or GBM30 cells (4×10^6 suspended in 100 μl PBS and then mixed with 100 μl matrigel) were implanted in mouse flanks. DGAT1 inhibitor A-922500 (120 mg/kg/day, oral gavage) was formulated by 1% Tween 80 in PBS and administrated to mice when tumor size reached approximately 80 mm^3.

The subject of test [2] is GBM cells (U251). Kind of test: Mitochondrial morphology (TEM, MitoTracker Red). The conditions noted are these: inhibitor 24 hours. Type of test: cell-based, human. How it is done: (A, B) Transmission electron microscopy (TEM) analysis of the mitochondrial morphology in GBM cells (U251) treated with the DGAT1 inhibitor A-922500 (20 μg/ml) or DGAT2 inhibitor PF-06424439 (20 μg/ml) for 24 hr and shown in a or infected with shRNA-expressing lentivirus against DGAT1 for 48 hr and shown in b. Scale bar, 500 nm. Mitochondria are indicated by red arrows. Mitochondria length and loss of cristae (%) were quantified by ImageJ over 100 mitochondria in each group (mean±SEM). Statistical significance was determined by one-way ANOVA. * P<0.0001. (C, D) Representative fluorescence images of LDs (green) and mitochondria (red) in U251 cells treated with DGAT1 or DGAT2 inhibitor and shown in c or shRNA in (D) as in panels (A, B). […] The percentage of cells with tubular or fragmented mitochondria was quantified by ImageJ in more than 100 cells (mean±SEM). Statistical significance was determined by one-way ANOVA. * P<0.001. […] Lower panels show the quantification of relative basal and maximal OCR change (details please see Methods). […] Basal OCR was determined as OCR before oligomycin subtract OCR after rotenone addition, and maximal OCR was determined as OCR after FCCP subtract OCR after rotenone addition. Statistical significance was determined by one-way ANOVA. * P<0.0001. […] ROS were detected with CellROX Deep Red, and mitochondria were stained with MitoTracker Green. […]

Test [3] has as its system GBM30-derived subcutaneous model. Kind of test: GBM30 subcutaneous xenograft model. The format is in vivo, mice. The conditions noted are these: 120 mg/kg/day. How it is done: as §1, §2, §3
Where [4] appears, read: oral gavage, listed as A-900225.

In the case of `O=C(Nc1ccccc1)Nc1ccc(-c2ccc(C(=O)[C@@H]3CCC[C@H]3C(=O)O)cc2)cc1` [A-922500], the “CPT1A expression in tumor tissues” value in test [1] and in test [3] was “significantly increased CPT1A expression” each time. The “LD formation in tumor tissues (TIP47)” value in test [1] and in test [3] was “dramatically suppressed LD formation” each time. Moreover, the “cleaved caspase 3 levels in tumor tissues” value in test [1] and in test [3] was “markedly elevated cleaved caspase 3 levels” throughout. Further, the tumor growth result in test [1] (oral gavage) was “significantly suppressed tumor growth”; in test [1] (setting [4]) it was “dramatically suppresses GBM tumor growth”; in test [3] (oral gavage), “significantly suppressed tumor growth”; in test [3] (setting [4]) it was “dramatically suppresses GBM tumor growth”. Further, the tumor weight result in test [1] (oral gavage) and in test [3] (oral gavage) was “dramatic reduction in tumor weight” each time. The structure of mitochondria entry in test [2] is given as “severely disrupted”.

For the origin of these results see US20240148679A1, “METHODS AND COMPOSITIONS RELATED TO TREATMENT AND PREVENTION OF CANCER BY INHIBITION OF DGAT1 AND DGAT2” (Ohio State Innovation Foundation, priority 2019, published 2024).
